Like-named read-outs stand apart in the source and are kept apart here.
Tests used:
229E = 229E MRC5 CPE assay (cytopathic experiment); format: cell-based, coronavirus 229E (HCoV-229E)
Procedure: (§1) Cells were seeded into microplates at a certain density and cultured overnight in a incubator at 5% CO2, 37° C. The next day, double-diluted compound and virus were added. It was set up a cell control group (cells without treatment with a compound or virus infection), a virus control group (cells infected with virus, no compound treatment) and a culture medium control group (medium only). Cells were cultured in the incubator for 3 days (229E) or 7 days (OC43). Cytotoxicity experiments were performed under the same conditions as antiviral experiments, but without virus infection. Cell viability was tested using a cell viability assay kit Cell Titer Glo (Promega).
(§2) The antiviral activity and cytotoxicity of the compounds were expressed by the inhibition rate (%) and cell viability (%) of the compounds against virus-induced cytopathic effects at different concentrations, respectively. Nonlinear fitting analysis on the inhibition rate and cell viability of the compounds were carried out with the GraphPad Prism, and the half effective concentration (EC50), the […] effective concentration (EC90), the half cytotoxic concentration (CC50) and the 90% cytotoxic concentration of the compound […] values were calculated.

OC43 = OC43 Huh7 CPE assay (cytopathic experiment); format: cell-based, coronavirus OC43 (HCoV-OC43); conditions: Betacoronavirus 1, OC43, Huh-7, 168 h; for EC50: read-out: OC43 Huh7 CPE assay (μM) EC50; for EC90: read-out: OC43 Huh7 CPE assay (μM) EC90
Procedure: as §1, §2

[1] = Human coronavirus 229E, MRC5, 72 h; read-out: 229E MRC5 CPE assay (μM) EC50
[2] = Human coronavirus 229E, MRC5, 72 h; read-out: 229E MRC5 CPE assay (μM) EC90
[3] = Human coronavirus 229E, MRC5, 72 h, read-out: 229E MRC5 CPE assay (μM) EC50
[4] = Human coronavirus 229E, MRC5, 72 h, read-out: 229E MRC5 CPE assay (μM) EC90

| Structure (SMILES) | EC50 (229E; [1]) | EC90 (229E; [2]) | EC50 (OC43) | EC90 (OC43) | EC50 (229E; [3]) | EC90 (229E; [4]) |
| --- | --- | --- | --- | --- | --- | --- |
| CCCC(CCC)C(=O)OCO[P@@]1(=S)OC[C@H]2O[C@@](C#N)(c3ccc4c(N)ncnn34)[C@H](O)[C@@H]2O1 [Compound 144] | > 0.5 µM | > 0.5 µM | > 0.5 µM | > 0.5 µM |  |  |
| CC(C)OC(=O)OCO[P@@]1(=O)OC[C@H]2O[C@@](C#N)(c3ccc4c(N)ncnn34)[C@H](O)[C@@H]2O1 [Compound 145] |  |  | 0.1 to 0.5 µM | 0.1 to 0.5 µM | < 0.1 µM | 0.1 to 0.5 µM |
| CC(C)OC(=O)CO[P@]1(=O)OC[C@H]2O[C@@](C#N)(c3ccc4c(N)ncnn34)[C@H](O)[C@@H]2O1 [Compound 146] |  |  | > 0.5 µM | > 0.5 µM | > 0.5 µM | > 0.5 µM |
| CC(C)OC(=O)CO[P@@]1(=O)OC[C@H]2O[C@@](C#N)(c3ccc4c(N)ncnn34)[C@H](O)[C@@H]2O1 [Compound 147] |  |  | > 0.5 µM | > 0.5 µM | > 0.5 µM | > 0.5 µM |
| CC(C)OC(=O)CO[P@]1(=S)OC[C@H]2O[C@@](C#N)(c3ccc4c(N)ncnn34)[C@H](O)[C@@H]2O1 [Compound 149] | > 0.5 µM | > 0.5 µM | > 0.5 µM | > 0.5 µM |  |  |
| CC(C)OC(=O)CO[P@@]1(=S)OC[C@H]2O[C@@](C#N)(c3ccc4c(N)ncnn34)[C@H](O)[C@@H]2O1 [Compound 150] | > 0.5 µM | > 0.5 µM | > 0.5 µM | > 0.5 µM |  |  |
| CCCC(CCC)C(=O)OCNc1ncnn2c([C@]3(C#N)O[C@H](COP(=O)(OCOC(=O)C(CCC)CCC)OCOC(=O)C(CCC)CCC)[C@@H](O)[C@H]3O)ccc12 [Compound 155] |  |  | > 0.5 µM | > 0.5 µM | 0.1 to 0.5 µM | > 0.5 µM |
| CCCN(CCC)S(=O)(=O)c1ccc(C(=O)OCO[P@@]2(=O)OCC3O[C@@](C#N)(c4ccc5c(N)ncnn45)[C@H](O)[C@@H]3O2)cc1 (stereo partly shown) [Compound 156] |  |  | > 0.5 µM | > 0.5 µM | 0.1 to 0.5 µM | > 0.5 µM |
| CCCN(CCC)S(=O)(=O)c1ccc(C(=O)OCO[P@]2(=O)OCC3O[C@@](C#N)(c4ccc5c(N)ncnn45)[C@H](O)[C@@H]3O2)cc1 (stereo partly shown) [Compound 157] |  |  | > 0.5 µM | > 0.5 µM | 0.1 to 0.5 µM | > 0.5 µM |
| CCCN(CCC)S(=O)(=O)c1ccc(C(=O)O[C@@H]2[C@@H]3OP(=O)(O)OC[C@H]3O[C@@]2(C#N)c2ccc3c(N)ncnn23)cc1 [Compound 158] |  |  | > 0.5 µM | > 0.5 µM | > 0.5 µM | > 0.5 µM |
| CCCN(CCC)S(=O)(=O)c1ccc(C(=O)OCO[P@](=O)(N[C@@H](C)C(=O)OCC(CC)CC)OC[C@H]2O[C@@](C#N)(c3ccc4c(N)ncnn34)[C@H](O)[C@@H]2O)cc1 [Compound 160] |  |  | > 0.5 µM | > 0.5 µM | > 0.5 µM | > 0.5 µM |
| CCCN(CCC)S(=O)(=O)c1ccc(C(=O)OCO[P@@](=O)(N[C@@H](C)C(=O)OCC(CC)CC)OC[C@H]2O[C@@](C#N)(c3ccc4c(N)ncnn34)[C@H](O)[C@@H]2O)cc1 [Compound 161] |  |  | > 0.5 µM | > 0.5 µM | > 0.5 µM | > 0.5 µM |
| CCCN(CCC)S(=O)(=O)c1ccc(C(=O)OCO[P@@](=O)(NC(C)(C)C(=O)OC(C)C)OC[C@H]2O[C@@](C#N)(c3ccc4c(N)ncnn34)[C@H](O)[C@@H]2O)cc1 [Compound 162] |  |  | > 0.5 µM | > 0.5 µM | > 0.5 µM | > 0.5 µM |
| CCCN(CCC)S(=O)(=O)c1ccc(C(=O)OCOP(=O)(NC(C)(C)C(=O)OC(C)C)OC[C@H]2O[C@@](C#N)(c3ccc4c(N)ncnn34)[C@H](O)[C@@H]2O)cc1 (stereo partly shown) [Compound 163] |  |  | > 0.5 µM | > 0.5 µM | > 0.5 µM | > 0.5 µM |
| CCCN(CCC)S(=O)(=O)c1ccc(C(=O)OCOP(=O)(OCOC(=O)c2ccc(S(=O)(=O)N(CCC)CCC)cc2)OC[C@H]2O[C@@](C#N)(c3ccc4c(N)ncnn34)[C@H](O)[C@@H]2O)cc1 [Compound 164] |  |  | > 0.5 µM | > 0.5 µM | > 0.5 µM | > 0.5 µM |
| CCC(CC)COC(=O)[C@H](C)N[P@@](=O)(OCOC(=O)c1cccnc1)OC[C@H]1O[C@@](C#N)(c2ccc3c(N)ncnn23)[C@H](O)[C@@H]1O [Compound 174] |  |  | > 0.5 µM | > 0.5 µM | > 0.5 µM | > 0.5 µM |
| CCC(CC)COC(=O)[C@H](C)NP(=O)(OCOC(=O)c1cccnc1)OC[C@H]1O[C@@](C#N)(c2ccc3c(N)ncnn23)[C@H](O)[C@@H]1O (stereo partly shown) [Compound 175] |  |  | > 0.5 µM | > 0.5 µM | > 0.5 µM | > 0.5 µM |

| Structure (SMILES) | EC50 (229E; [1]) | EC90 (229E; [2]) | EC50 (OC43) | EC90 (OC43) | EC50 (229E; [3]) | EC90 (229E; [4]) |
| --- | --- | --- | --- | --- | --- | --- |
| CC(C)OC(=O)C(C)(C)N[P@](=O)(OCOC(=O)c1cccnc1)OC[C@H]1O[C@@](C#N)(c2ccc3c(N)ncnn23)[C@H](O)[C@@H]1O [Compound 176] |  |  | > 0.5 µM | > 0.5 µM | > 0.5 µM | > 0.5 µM |
| CC(C)OC(=O)C(C)(C)NP(=O)(OCOC(=O)c1cccnc1)OC[C@H]1O[C@@](C#N)(c2ccc3c(N)ncnn23)[C@H](O)[C@@H]1O (stereo partly shown) [Compound 177] |  |  | > 0.5 µM | > 0.5 µM | > 0.5 µM | > 0.5 µM |
| N#C[C@@]1(c2ccc3c(N)ncnn23)OC2CO[P@](=O)(OCOC(=O)c3cccnc3)O[C@H]2[C@H]1O (stereo partly shown) [Compound 179] |  |  | > 0.5 µM | > 0.5 µM | > 0.5 µM | > 0.5 µM |
| N#C[C@@]1(c2ccc3c(N)ncnn23)OC2CO[P@@](=O)(OCOC(=O)c3cccnc3)O[C@H]2[C@H]1O (stereo partly shown) [Compound 180] |  |  | > 0.5 µM | > 0.5 µM | > 0.5 µM | > 0.5 µM |
| N#C[C@@]1(c2ccc3c(N)ncnn23)O[C@@H]2COP(=O)(O)O[C@H]2[C@H]1OC(=O)c1cccnc1 [Compound 181] |  |  | > 0.5 µM | > 0.5 µM | > 0.5 µM | > 0.5 µM |
| CCC(CC)COC(=O)[C@H](C)N[P@@](=O)(OCOC(=O)C(C)(C)C)OC[C@H]1O[C@@](C#N)(c2ccc3c(N)ncnn23)[C@H](O)[C@@H]1O [Compound 192] |  |  | 0.1 to 0.5 µM | > 0.5 µM | 0.1 to 0.5 µM | > 0.5 µM |
| CCC(CC)COC(=O)[C@H](C)NP(=O)(OCOC(=O)C(C)(C)C)OC[C@H]1O[C@@](C#N)(c2ccc3c(N)ncnn23)[C@H](O)[C@@H]1O (stereo partly shown) [Compound 193] |  |  | 0.1 to 0.5 µM | > 0.5 µM | 0.1 to 0.5 µM | > 0.5 µM |
| CC(C)OC(=O)C(C)(C)N[P@](=O)(OCOC(=O)C(C)(C)C)OC[C@H]1O[C@@](C#N)(c2ccc3c(N)ncnn23)[C@H](O)[C@@H]1O [Compound 194] |  |  | 0.1 to 0.5 µM | > 0.5 µM | 0.1 to 0.5 µM | > 0.5 µM |
| CC(C)OC(=O)C(C)(C)NP(=O)(OCOC(=O)C(C)(C)C)OC[C@H]1O[C@@](C#N)(c2ccc3c(N)ncnn23)[C@H](O)[C@@H]1O (stereo partly shown) [Compound 195] |  |  | 0.1 to 0.5 µM | > 0.5 µM | 0.1 to 0.5 µM | > 0.5 µM |
| CC(C)(C)C(=O)OCOP(=O)(OCOC(=O)C(C)(C)C)OC[C@H]1O[C@@](C#N)(c2ccc3c(N)ncnn23)[C@H](O)[C@@H]1O [Compound 196] |  |  | 0.1 to 0.5 µM | > 0.5 µM | 0.1 to 0.5 µM | > 0.5 µM |
| CC(C)(C)C(=O)OCO[P@@]1(=O)OCC2O[C@@](C#N)(c3ccc4c(N)ncnn34)[C@H](O)[C@@H]2O1 (stereo partly shown) [Compound 197] |  |  | > 0.5 µM | > 0.5 µM | 0.1 to 0.5 µM | > 0.5 µM |
| CC(C)(C)C(=O)OCO[P@]1(=O)OCC2O[C@@](C#N)(c3ccc4c(N)ncnn34)[C@H](O)[C@@H]2O1 (stereo partly shown) [Compound 198] |  |  | > 0.5 µM | > 0.5 µM | 0.1 to 0.5 µM | > 0.5 µM |
| CC(C)(C)C(=O)O[C@@H]1[C@@H]2O[P@@](=O)(O)OC[C@H]2O[C@@]1(C#N)c1ccc2c(N)ncnn12 [Compound 199] |  |  | > 0.5 µM | > 0.5 µM | > 0.5 µM | > 0.5 µM |
| CC(C)(C)C(=O)O[C@@H]1[C@@H]2O[P@](=O)(O)OC[C@H]2O[C@@]1(C#N)c1ccc2c(N)ncnn12 [Compound 200] |  |  | > 0.5 µM | > 0.5 µM | > 0.5 µM | > 0.5 µM |
| [2H]c1cc([C@]2(C#N)O[C@@H]3CO[P@](=O)(O)O[C@H]3[C@H]2OC(=O)C(CCC)CCC)n2ncnc(N)c12 [Compound 208] |  |  | 0.1 to 0.5 µM | 0.1 to 0.5 µM | > 0.5 µM | > 0.5 µM |
| [2H]c1cc([C@]2(C#N)O[C@@H]3CO[P@@](=O)(O)O[C@H]3[C@H]2OC(=O)C(CCC)CCC)n2ncnc(N)c12 [Compound 209] |  |  | > 0.5 µM | 0.1 to 0.5 µM | > 0.5 µM | > 0.5 µM |
| [2H]c1cc([C@]2(C#N)O[C@@H]3CO[P@](=O)(OCOC(=O)C(CCC)CCC)O[C@H]3[C@H]2O)n2ncnc(N)c12 [Compound 210] |  |  | < 0.1 µM | 0.1 to 0.5 µM | < 0.1 µM | < 0.1 µM |

Source: patent US20240252527A9, “NUCLEOSIDE DRUGS FOR THE TREATMENT OR PREVENTION OF CORONAVIRUS INFECTION AND THEIR USES” (Miracure Biotechnology Limited, priority 2022, published 2024)
